In US10947242B2, “[1,2,4]triazolo[1,5and#8208;A]pyrimidine compounds as PDE2 inhibitors” (Janssen Pharmaceutica NV, priority 2016, dated 2021):
“And” between values parts separate entries of the source, which are not always exact repeats. Equal values may be shown once. Read-outs that look alike come from different tables or passages of the source.

What was measured:
[1] = biological target: T1, Human recombinant PDE2A (hPDE2A) (Homo sapiens, UniProt O00408); assay: In vitro assay PDE2A (SPA, 3H-cGMP hydrolysis); type: biochemical; conditions: for Emax: read-out: hPDE2A Emax
T1 construct: His tag (inferred from metal chelate purification); made in house; host or cells: Sf9 insect cells (baculovirus)

[2] = biological target: T2, Human recombinant PDE3A (hPDE3A) (Homo sapiens, UniProt Q14432); assay: In vitro assay PDE3A (SPA, 3H-cAMP hydrolysis); type: biochemical; conditions: for IC50: hPDE3B pIC50, read-out: pIC50 (converted); for Emax: read-out: hPDE3B Emax, read-out: Emax;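 on all read-outs here: the method names PDE3A and the table heading PDE3B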
T2 construct: purchased Scottish Biomedical; host or cells: Sf9 insect cells
Outline: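 Human PDE3A, cloned from brain, as partially purified Sf9 lysate. Substrate 0.4 μM cAMP plus [3H]-cAMP (2.4 μCi/ml final) in 50 mM Tris pH 7.8, 8.3 mM MgCl2, 1.7 mM EGTA, 60 min at room temperature, 1% DMSO final. Hydrolysis read by SPA scintillation counting against no-enzyme blanks and DMSO controls.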

[3] = biological target: T3, Human recombinant PDE10A (hPDE10A) (Homo sapiens, UniProt Q9Y233); assay: In vitro assay PDE10A, human clone (SPA, 3H-cAMP hydrolysis); type: biochemical; conditions: human clone (h), default; for Emax: read-out: hPDE10A2 Emax; for IC50: read-out: hPDE10A2 pIC50 (converted)
T3 construct: His tag (inferred from metal chelate purification); made in house; host or cells: Sf9 insect cells (baculovirus)
Outline: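 Human recombinant PDE10A was expressed in Sf9 cells via baculovirus and incubated with compound in 50 mM Tris pH 7.8, 8.3 mM MgCl2, 1.7 mM EGTA. Substrate was 60 nM cAMP plus 0.008 μCi 3H-cAMP for 60 min at room temperature, read by SPA scintillation counting. Controls used 1% DMSO, and blanks omitted enzyme.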

[4] = biological target: T4, PDE2A (Rattus norvegicus, UniProt Q01062); assay: PDE2 occupancy by test compounds, ex-vivo autoradiography with [3H]B-17a; type: in vivo, Male Wistar rats; conditions: for receptor occupancy at 10 mg/kg: percentage receptor occupancy, ex-vivo autoradiography, striatum; for ED50: drug dose producing 50% receptor occupancy, read-out: PDE Occupancy ED50
T4 construct: Twenty μm-thick striatal sections were cut; from tissue; host or cells: rat brain, striatal sections
T4 sequence (Q01062 1-928): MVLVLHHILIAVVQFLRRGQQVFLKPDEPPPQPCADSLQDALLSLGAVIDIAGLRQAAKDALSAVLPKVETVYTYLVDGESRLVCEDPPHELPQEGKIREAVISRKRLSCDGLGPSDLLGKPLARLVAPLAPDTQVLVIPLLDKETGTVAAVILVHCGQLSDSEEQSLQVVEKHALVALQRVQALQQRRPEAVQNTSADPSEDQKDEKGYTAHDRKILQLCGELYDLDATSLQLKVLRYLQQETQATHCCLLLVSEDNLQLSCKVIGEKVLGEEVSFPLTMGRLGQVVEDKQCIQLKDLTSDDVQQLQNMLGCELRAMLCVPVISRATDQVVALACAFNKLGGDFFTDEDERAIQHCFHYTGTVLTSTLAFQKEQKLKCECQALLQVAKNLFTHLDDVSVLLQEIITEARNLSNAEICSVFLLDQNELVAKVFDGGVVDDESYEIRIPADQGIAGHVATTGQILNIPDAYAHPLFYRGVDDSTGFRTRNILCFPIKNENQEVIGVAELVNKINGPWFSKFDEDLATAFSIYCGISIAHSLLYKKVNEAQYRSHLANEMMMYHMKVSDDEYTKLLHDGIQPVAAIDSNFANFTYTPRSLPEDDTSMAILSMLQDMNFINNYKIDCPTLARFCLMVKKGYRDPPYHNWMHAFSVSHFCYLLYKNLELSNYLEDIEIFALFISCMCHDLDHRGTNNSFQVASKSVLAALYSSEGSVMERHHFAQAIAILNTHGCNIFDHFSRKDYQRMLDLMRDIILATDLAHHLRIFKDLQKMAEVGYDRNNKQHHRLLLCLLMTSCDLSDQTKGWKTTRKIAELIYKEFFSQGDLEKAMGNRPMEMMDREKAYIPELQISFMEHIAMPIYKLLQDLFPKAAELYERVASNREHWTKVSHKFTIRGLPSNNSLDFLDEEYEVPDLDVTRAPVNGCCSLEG

[5] = human recombinant PDE2A, 10 μM cGMP substrate, read-out: hPDE2A pIC50 (converted)
[6] = read-out: hPDE2A pIC50 (converted)
[7] = hPDE2A pIC50, human recombinant PDE2A, 10 μM cGMP substrate

T3 sequence (Q9Y233 267-1055): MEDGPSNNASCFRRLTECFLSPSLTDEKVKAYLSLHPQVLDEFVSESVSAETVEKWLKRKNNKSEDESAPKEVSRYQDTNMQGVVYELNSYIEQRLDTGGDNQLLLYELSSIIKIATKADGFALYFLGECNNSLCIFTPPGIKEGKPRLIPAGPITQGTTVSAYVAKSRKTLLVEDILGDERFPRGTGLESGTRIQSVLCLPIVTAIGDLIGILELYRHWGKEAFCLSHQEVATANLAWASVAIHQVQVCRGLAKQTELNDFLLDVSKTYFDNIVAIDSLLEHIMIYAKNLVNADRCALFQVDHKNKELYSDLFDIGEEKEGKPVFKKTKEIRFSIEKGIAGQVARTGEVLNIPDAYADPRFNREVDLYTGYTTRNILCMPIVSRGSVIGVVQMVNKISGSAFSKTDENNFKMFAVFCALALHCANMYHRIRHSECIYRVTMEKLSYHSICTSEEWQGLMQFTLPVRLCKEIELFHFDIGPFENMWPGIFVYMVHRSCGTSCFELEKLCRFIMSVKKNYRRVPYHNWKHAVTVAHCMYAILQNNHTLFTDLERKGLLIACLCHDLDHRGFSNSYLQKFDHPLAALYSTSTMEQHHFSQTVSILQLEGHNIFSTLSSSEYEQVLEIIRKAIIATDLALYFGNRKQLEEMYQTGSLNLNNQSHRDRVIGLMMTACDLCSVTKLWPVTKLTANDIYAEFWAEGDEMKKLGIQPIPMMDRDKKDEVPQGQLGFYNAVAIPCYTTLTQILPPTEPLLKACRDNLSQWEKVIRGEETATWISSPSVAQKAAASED
T2 sequence (Q14432 whole entry): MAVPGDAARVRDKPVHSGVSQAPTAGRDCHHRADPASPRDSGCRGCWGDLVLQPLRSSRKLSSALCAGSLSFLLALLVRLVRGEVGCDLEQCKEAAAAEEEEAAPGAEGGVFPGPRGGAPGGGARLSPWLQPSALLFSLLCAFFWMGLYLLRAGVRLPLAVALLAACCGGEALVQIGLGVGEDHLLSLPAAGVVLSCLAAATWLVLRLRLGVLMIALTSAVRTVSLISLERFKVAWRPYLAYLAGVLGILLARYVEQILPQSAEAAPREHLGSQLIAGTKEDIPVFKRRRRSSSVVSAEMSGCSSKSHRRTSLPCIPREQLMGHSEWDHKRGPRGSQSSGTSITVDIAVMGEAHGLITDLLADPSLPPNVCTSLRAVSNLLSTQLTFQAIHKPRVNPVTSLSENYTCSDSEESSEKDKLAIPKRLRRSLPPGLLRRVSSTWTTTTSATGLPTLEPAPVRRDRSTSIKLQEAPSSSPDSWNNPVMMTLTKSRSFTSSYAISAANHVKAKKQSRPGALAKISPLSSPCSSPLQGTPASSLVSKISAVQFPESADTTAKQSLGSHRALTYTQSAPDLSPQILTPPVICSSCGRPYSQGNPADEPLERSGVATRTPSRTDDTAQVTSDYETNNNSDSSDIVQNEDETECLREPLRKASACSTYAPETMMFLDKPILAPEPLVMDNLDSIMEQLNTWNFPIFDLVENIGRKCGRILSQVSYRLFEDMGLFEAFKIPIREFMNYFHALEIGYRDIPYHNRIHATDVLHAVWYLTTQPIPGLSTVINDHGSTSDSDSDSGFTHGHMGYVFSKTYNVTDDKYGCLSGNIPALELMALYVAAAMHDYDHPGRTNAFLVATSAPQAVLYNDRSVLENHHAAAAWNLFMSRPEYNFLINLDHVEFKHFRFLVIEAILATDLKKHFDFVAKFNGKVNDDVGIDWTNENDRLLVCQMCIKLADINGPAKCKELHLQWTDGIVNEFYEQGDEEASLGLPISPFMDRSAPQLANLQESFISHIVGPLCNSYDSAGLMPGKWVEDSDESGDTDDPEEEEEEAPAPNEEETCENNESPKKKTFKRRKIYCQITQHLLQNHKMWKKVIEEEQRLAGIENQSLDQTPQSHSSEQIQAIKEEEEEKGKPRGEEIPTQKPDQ
T1 sequence (O00408 whole entry): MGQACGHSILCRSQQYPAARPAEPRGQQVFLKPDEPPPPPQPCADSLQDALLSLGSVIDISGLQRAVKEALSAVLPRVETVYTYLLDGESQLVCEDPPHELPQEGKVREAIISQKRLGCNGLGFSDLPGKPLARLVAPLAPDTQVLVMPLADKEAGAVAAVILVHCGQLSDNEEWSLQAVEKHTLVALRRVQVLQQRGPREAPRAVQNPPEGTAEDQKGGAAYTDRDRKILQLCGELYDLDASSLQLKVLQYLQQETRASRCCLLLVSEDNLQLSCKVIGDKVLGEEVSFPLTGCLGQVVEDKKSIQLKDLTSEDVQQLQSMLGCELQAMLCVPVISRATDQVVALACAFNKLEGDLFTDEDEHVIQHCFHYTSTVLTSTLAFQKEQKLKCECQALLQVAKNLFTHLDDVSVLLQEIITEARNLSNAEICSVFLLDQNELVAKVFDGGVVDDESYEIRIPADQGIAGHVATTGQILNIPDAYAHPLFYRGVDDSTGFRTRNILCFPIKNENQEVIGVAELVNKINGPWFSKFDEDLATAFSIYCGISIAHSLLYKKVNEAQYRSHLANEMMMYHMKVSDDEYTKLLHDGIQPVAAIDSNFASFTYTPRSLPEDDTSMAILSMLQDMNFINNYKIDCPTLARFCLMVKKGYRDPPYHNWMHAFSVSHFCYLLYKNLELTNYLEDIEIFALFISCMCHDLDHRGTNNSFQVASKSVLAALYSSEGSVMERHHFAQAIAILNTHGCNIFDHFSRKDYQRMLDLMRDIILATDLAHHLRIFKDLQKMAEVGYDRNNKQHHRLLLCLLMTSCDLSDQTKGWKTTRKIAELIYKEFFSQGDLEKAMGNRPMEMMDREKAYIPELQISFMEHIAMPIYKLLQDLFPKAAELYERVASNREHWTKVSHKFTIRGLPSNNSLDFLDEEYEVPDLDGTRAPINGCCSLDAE

Row | IC50 [1, 5] | Emax ([1]; human recombinant PDE2A) | Emax [1] | IC50 [1, 6] | IC50 [2] | Emax [2] | Emax [3] | IC50 [3] | receptor occupancy at 10 mg/kg ([4]; po, route PO (oral)) | receptor occupancy at 10 mg/kg ([4]; sc, route SC (subcutaneous)) | hPDE10A2 Emax [3] | ED50 ([4]; route PO (oral)) | Compound | IC50 ([1]; hPDE2A pIC50) | IC50 [1, 7]
1 | 13.8 nM | 99% | 99% | 13.8 nM | > 10000 nM | 17% | 72% | 4170 nM | 8% | – | – | – | Cc1cc(C(=O)N2CC[C@@H](C)[C@H](c3cc(C(F)F)nc4ncnn34)C2)c(C(F)(F)F)cn1 [Compound 41] | – | –
2 | 1.15 nM | 100% | 100% | 1.15 nM | > 10000 nM | 48% | 95% | 316 nM | 54% | – | – | – | C[C@@H]1CCN(C(=O)c2ccnc(Cl)c2)C[C@H]1c1cc(C(F)F)nc2ncnn12 [Compound 42] | – | –
3 | 5.01 nM | 99% | 99% | 5.01 nM | > 10000 nM | 29% | 88% | 1320 nM | 2% | – | – | – | C[C@@H]1CCN(C(=O)c2cc(Cl)ncc2Cl)C[C@H]1c1cc(C(F)F)nc2ncnn12 [Compound 43] | – | –
4 | 2.51 nM | 99% | 99% | 2.51 nM | 3390 nM | 80% | 92% | 646 nM | 5% | – | – | – | C[C@@H]1CCN(C(=O)c2nc3ccccc3o2)C[C@H]1c1cc(C(F)F)nc2ncnn12 [Compound 47] | – | –
5 | 0.174 nM | 100% | 100% | 0.174 nM | 87.1 nM | 99% | 100% | 43.7 nM | – | 96% | – | – | Cc1c(C(=O)N2CC[C@@H](C)[C@H](c3cc(C(F)F)nc4ncnn34)C2)oc2ccccc12 [Compound 48] | – | –
6 | 3.09 nM | 100% | 100% | 3.09 nM | > 10000 nM | 61% | 93% | 724 nM | -30% | – | – | – | Cc1nc2cccc(C(=O)N3CC[C@@H](C)[C@H](c4cc(C(F)F)nc5ncnn45)C3)c2o1 [Compound 50] | – | –
7 | 5.5 nM | 101% | 101% | 5.5 nM | > 10000 nM | 44% | 86% | 1260 nM | 20% | – | – | – | Cc1cc(C(=O)N2CC[C@@H](C)[C@H](c3cc(C(F)F)nc4ncnn34)C2)c(Cl)cn1 [Compound 51] | – | –
8 | 5.62 nM | 100% | 100% | 5.62 nM | 6760 nM | 62% | 89% | 776 nM | 22% | – | – | – | COc1cc(C(=O)N2CC[C@@H](C)[C@H](c3cc(C(F)F)nc4ncnn34)C2)c(C)cn1 [Compound 53] | – | –
9 | 4.17 nM | 100% | 100% | 4.17 nM | 9550 nM | 51% | 89% | 661 nM | 39% | – | – | – | C[C@@H]1CCN(C(=O)c2cc(Cl)ncc2F)C[C@H]1c1cc(C(F)F)nc2ncnn12 [Compound 54] | – | –
10 | 0.851 nM | 100% | 100% | 0.851 nM | 1100 nM | 92% | 97% | 151 nM | 32% | – | – | – | Cc1ccc2cc(C(=O)N3CC[C@@H](C)[C@H](c4cc(C(F)F)nc5ncnn45)C3)c(C)nc2c1 [Compound 60] | – | –
11 | 1.58 nM | 99% | 99% | 1.58 nM | 6760 nM | 62% | 96% | 355 nM | 7% | – | – | – | C[C@@H]1CCN(C(=O)c2cnc(Cl)c(Cl)c2)C[C@H]1c1cc(C(F)F)nc2ncnn12 [Compound 64] | – | –
12 | 17.4 nM | 99% | 99% | 17.4 nM | > 10000 nM | 48% | 79% | 2290 nM | -14% | – | – | – | COc1ccc(C(=O)N2CC[C@@H](C)[C@H](c3cc(C(F)F)nc4ncnn34)C2)nc1 [Compound 66] | – | –
13 | 6.31 nM | 99% | 99% | 6.31 nM | – | 50% | 85% | 1380 nM | – | 31% | – | – | Cc1nccc(C(=O)N2CC[C@@H](C)[C@H](c3cc(C(F)F)nc4ncnn34)C2)c1F [Compound 68] | – | –
14 | 1.74 nM | 102% | 102% | 1.95 nM | 5130 nM | 66% | 93% | 331 nM and 380 nM | – | 65% | 95 | 6.4 mg/kg | Cc1cc(C(=O)N2CC[C@@H](C)[C@H](c3cc(C(F)F)nc4ncnn34)C2)c(F)c(C)n1 [Compound 70] | – | –
15 | 1.86 nM | 98% | 98% | 1.86 nM | > 1000 nM | 32% | 94% | 339 nM | – | 49% | – | – | C[C@@H]1CCN(C(=O)c2cc(Cl)nc(Cl)c2F)C[C@H]1c1cc(C(F)F)nc2ncnn12 [Compound 71] | – | –
16 | 1.95 nM | 101% | 101% | 1.95 nM | 2630 nM | 83% | 98% | 219 nM | 0% | – | – | – | COc1ncc(C(=O)N2CC[C@@H](C)[C@H](c3cc(C(F)F)nc4ncnn34)C2)cc1C1CC1 [Compound 73] | – | –
17 | 30.2 nM | 101% | 101% | 30.2 nM | > 10000 nM | 30% | 36% | > 10000 nM | – | 14% | – | – | COc1c(C)cc(C(=O)N2CC[C@@H](C)[C@](F)(c3cc(C(F)F)nc4ncnn34)C2)cc1C [Compound 74] | – | –
18 | 0.794 nM | 100% | 100% | 0.794 nM | 4170 nM | 71% | 98% | 81.3 nM | – | 52% | – | 8.63 mg/kg | CCc1cc(C(=O)N2CC[C@@H](C)[C@H](c3cc(C(F)F)nc4ncnn34)C2)cc(C)n1 [Compound 80] | – | –

Row | Compound | IC50 [1, 5] | Emax ([1]; human recombinant PDE2A) | Emax [1] | IC50 [1, 6] | IC50 [2] | Emax [2] | Emax [3] | IC50 [3] | receptor occupancy at 10 mg/kg ([4]; po, route PO (oral)) | receptor occupancy at 10 mg/kg ([4]; sc, route SC (subcutaneous)) | hPDE10A2 Emax [3] | ED50 ([4]; route PO (oral)) | IC50 ([1]; hPDE2A pIC50) | IC50 [1, 7]
19 | Cc1cc(C(=O)N2CC[C@@H](C)[C@H](c3cc(C(F)F)nc4ncnn34)C2)cc(C)c1Cl [Compound 76] | – | – | 99% | – | 1230 nM | 91% | 101% | 31.6 nM | 17% | – | – | – | 0.229 nM | 0.229 nM
20 | Cc1cc(C(=O)N2CC[C@@H](C)[C@H](c3cc(C(F)F)nc4ncnn34)C2)cc(C)c1C#N [Compound 78] | – | – | 102% | – | 1580 nM | 87% | 98% | 105 nM | – | 77% | – | – | 1 nM | 1 nM
